According to EP4650362A1, “NEUROPROTECTIVE PSD-95 POLYPEPTIDE INHIBITOR AND USE THEREOF” (Beijing Tuo Jie Biopharmaceutical Co. Ltd., priority 2023, dated 2024):
pEC50, pIC50: −log10 of the molar value. Several values for one entry are separate records, joined by “and”; a condition that tells them apart may be missing. Equal entries are not always repeated.

How the values were obtained:
[1] = plasma stability test, rat plasma; format: in vitro ADME; settings: 2 µM (test control)
Experimental: (§1) This test example assessed the in vitro stability of polypeptide compounds in rat and human plasma, and is divided into two parts: 1) the stability of the individual polypeptide compounds in rat and human plasma; and 2) the stability of the polypeptide compounds in rat and human plasma when the polypeptide compounds are administered simultaneously with alteplase (rt-PA).
(§2) Solution preparation: An appropriate amount of a test polypeptide compound was weighed out and dissolved in an appropriate amount of 1× PBS to form a 1 mM test solution. NA-1 and NoNO42 were used as positive drugs, propantheline bromide was used as a human plasma test control, and lovastatin was used as a rat plasma test control.
(§3) Plasma stability test: 12.5 µL of the 1 mM test solution was added to a 495 µL pre-incubated plasma sample. The prepared plasma sample was added to centrifuge tubes of different incubation times (0 min, 10 min, 20 min, 30 min, 60 min, and 120 min) (50 µL/tube), and the tubes were then incubated in a water bath at 37 °C with shaking at 60 rpm. For each incubation time, two parallel samples were set. Subsequently, 200 µL of stop solution was added to stop the incubation, and the mixtures were vortexed for 5 min. Then the mixtures were centrifuged at 10,000 rpm at 4 °C for 10 min to remove the protein in the sample, and 70 µL of the supernatant was transferred to a new 96-well plate (70 µL of water was added to each well beforehand) and well mixed.
(§4) The remaining compound content at each time point was determined by LC-MS/MS, and the relative remaining compound contents at the other time points were calculated with the content at 0 min as a standard (100%).
(§5) Sample pretreatment: A 30 µL plasma sample was taken and added to 120 µL of a 5% solution of formic acid in methanol containing 1 ng/mL internal standard (verapamil). The mixture was vortexed for 5 min and centrifuged at low temperature at 10,000 rpm for 10 min. 70 µL of the supernatant was taken, and 70 µL of a 0.1% aqueous solution of formic acid was added and well mixed, and the mixture was injected into an LC-MS system for analysis.
(§6) LC-MS analysis: (1) Chromatographic conditions: mobile phase A: 0.1% formic acid in water; mobile phase B: 0.1% formic acid in acetonitrile; flow rate: 0.5 mL/min; injection volume: 10 µL; chromatography column: nanomicro Unisil C18aq (4.6 mm × 150 mm, 5 µm); column temperature: 40 °C. (2) Mass-spectrometric conditions: The mass spectrometry analysis used an electrospray ionization (ESI) source, a positive ion analysis mode, and a multi-reaction monitoring (MRM) scan mode. The experimental results are shown in Table 4-1, Table 4-2, FIG. 2A, FIG. 2B, FIG. 2C, and FIG. 2D. Table 4-1. The plasma stability of the polypeptide compound

[2] = target: human PSD95-PDZ2 (the tag was removed by TEV enzyme) (human) (UniProt P78352); test: competitive ELISA; NA-1 reference value printed with compound 17; competitor Biotin-NA-1 at 0.3 µM
Sequence of human PSD95-PDZ2 (the tag was removed by TEV enzyme) (human) (P78352 155-249 limits assumed): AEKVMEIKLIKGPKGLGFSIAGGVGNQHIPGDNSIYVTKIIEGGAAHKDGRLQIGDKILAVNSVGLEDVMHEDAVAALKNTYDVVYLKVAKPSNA

Biotin-PDZ2 (human) [3] = test: binding ELISA; ratio of EC50 on Biotin-PDZ3 to EC50 on Biotin-PDZ2
[4] = target: human PSD95-PDZ2 (the tag was removed by TEV enzyme) (human) (UniProt P78352); test: competitive ELISA; NA-1 reference value printed with compound 16; competitor Biotin-NA-1 at 0.3 µM
[5] = target: human PSD95-PDZ2 (the tag was removed by TEV enzyme) (human) (UniProt P78352); test: competitive ELISA; NA-1 reference value printed with compound 22; competitor Biotin-NA-1 at 0.3 µM
Biotin-PDZ2 (human) [6] = test: binding ELISA; peptide coated at 2 µM, Biotin-PDZ2 titrated
[7] = target: human PSD95-PDZ2 (the tag was removed by TEV enzyme) (human) (UniProt P78352); test: competitive ELISA; NA-1 reference value printed with compound 15; competitor Biotin-NA-1 at 0.3 µM
PDZ2 = settings: Science, 2002, 298:846-50; cited from earlier work
[8] = plasma stability test, human plasma; format: in vitro ADME; settings: 2 µM (test control)
Experimental: as §1, §2, §3, §4, §5, §6

## CC[C@H](C)C(=O)O[C@H]1C[C@@H](C)C=C2C=C[C@H](C)[C@H](CC[C@@H]3C[C@@H](O)CC(=O)O3)[C@H]21 [Lovastatin]
[1]; 0min (standard 100%)
  Relative remaining compound content (%): 100.0%
[1]; 10min
  Relative remaining compound content (%): 8.5% and 9.6%
[1]; 20min
  Relative remaining compound content (%): 1.8% and 2.1%
[1]; 30min
  Relative remaining compound content (%): 0.7% and 0.9%

## NA-1 (peptide)
[2]
  pIC50: 6.06
Biotin-PDZ2 (human) [3]
  Specificity for PDZ2 (PDZ3/PDZ2): > 10000
[4]
  pIC50: 6.06
[5]
  pIC50: 6.29
Biotin-PDZ2 (human) [6]
  pEC50: 7.08
[7]
  pIC50: 6.06

## YGRKKRRQRRRKLSSIEADA (source 1..20: note = NA-1(ADA)) [negative control, mutant of NA-1 obtained by mutating the amino acids at positions 0 and -2 into Ala]
PDZ2
  ability to bind to PDZ2: no ability to bind to PDZ2

## CC(C)[N+](C)(CCOC(=O)C1c2ccccc2Oc2ccccc21)C(C)C [Propantheline bromide]
[8]; 0min (standard 100%)
  Relative remaining compound content (%): 100.0%
[8]; 10min
  Relative remaining compound content (%): 80.2% and 84.0%
[8]; 20min
  Relative remaining compound content (%): 71.5% and 66.8%
[8]; 30min
  Relative remaining compound content (%): 63.4% and 53.4%
[8]; 60min
  Relative remaining compound content (%): 42.7% and 26.4%
[8]; 120min
  Relative remaining compound content (%): 10.9% and 7.2%
